Experimental findings from ChEMBL document CHEMBL1133593 (J Med Chem, 2000) are described below.

For orientation: IC50 means the concentration needed to halve the response being measured.

The target of the experiment is Phosphoglycerate kinase (Trypanosoma brucei). The experiment is described as follows: evaluated for the inhibition of Trypanosoma brucei Phosphoglycerate kinase (PGK).
The compound `CCCNc1nc(N)c2ncn([C@@H]3O[C@H](CO)[C@@H](O)[C@H]3O)c2n1` returned an IC50 of 1500 µM. For the compound `Nc1nc(NCC(O)c2ccccc2)nc2c1ncn2[C@@H]1O[C@H](CO)[C@@H](O)[C@H]1O` (stereo partly specified), the IC50 is 1400 µM.

The compound `Nc1nc(NCc2ccccc2)nc2c1ncn2C1O[C@H](CO)[C@@H](O)[C@H]1O` (stereo partly specified) registered an IC50 of 3500 µM. Take `CCCCCNc1ncnc2c1ncn2[C@@H]1O[C@H](CO)[C@@H](O)[C@H]1O`: the concentration for half-maximal inhibition (IC50) came to 3000 µM. As for `NCCNc1ncnc2c1ncn2C1O[C@H](CO)[C@@H](O)[C@H]1O` (stereo partly specified), the IC50 came to 2500 µM.

As for `Nc1nc(NC2CCCC2)c2ncn(C3O[C@H](CO)[C@@H](O)[C@H]3O)c2n1` (stereo partly specified), the 50% inhibitory concentration (IC50) came out at 1500 µM. With `OC[C@H]1OC(n2cnc3c(NCCc4ccccc4)nc(NCCc4ccccc4)nc32)[C@H](O)[C@@H]1O` (stereo partly specified) the figure was 30 µM; with `Nc1nc(NCCCCNc2nc(N)nc3c2ncn3C2O[C@H](CO)[C@@H](O)[C@H]2O)c2ncn(C3O[C@@H](CO)[C@H](O)[C@@H]3O)c2n1` (stereo partly specified), 750 µM; with `Nc1nc(NCCCNc2nc(N)nc3c2ncn3C2O[C@H](CO)[C@@H](O)[C@H]2O)c2ncn(C3O[C@@H](CO)[C@H](O)[C@@H]3O)c2n1` (stereo partly specified), 50 µM. `COc1ccc(CCNc2nc(N)nc3c2ncn3C2O[C@H](CO)[C@@H](O)[C@H]2O)cc1` (stereo partly specified) came in with an IC50 of 1500 µM. With `Nc1nc(NCCc2ccc(Cl)cc2)c2ncn(C3O[C@H](CO)[C@@H](O)[C@H]3O)c2n1` (stereo partly specified) the figure was 1400 µM. With `Nc1nc(NCCNc2nc(N)nc3c2ncn3C2O[C@H](CO)[C@@H](O)[C@H]2O)c2ncn(C3O[C@@H](CO)[C@H](O)[C@@H]3O)c2n1` (stereo partly specified) the figure was 500 µM; with `C#CCNc1nc(N)nc2c1ncn2C1O[C@H](CO)[C@@H](O)[C@H]1O` (stereo partly specified), 1500 µM; with `CCCCCNc1nc(N)nc2c1ncn2C1O[C@H](CO)[C@@H](O)[C@H]1O` (stereo partly specified), 2000 µM. With `Nc1nc(NCCc2cccc(Cl)c2)c2ncn(C3O[C@H](CO)[C@@H](O)[C@H]3O)c2n1` (stereo partly specified) the figure was 1200 µM; with `OC[C@H]1OC(n2cnc3c(NCCc4ccccc4)nc(NCCc4ccc(O)cc4)nc32)[C@H](O)[C@@H]1O` (stereo partly specified), 100 µM. `Nc1nc(NCCc2cccc(O)c2)c2ncn(C3O[C@H](CO)[C@@H](O)[C@H]3O)c2n1` (stereo partly specified) displayed an IC50 of 250 µM.

Turning to `OC[C@H]1OC(n2cnc3c(NCCc4ccc(O)cc4)nc(NCCc4ccccc4)nc32)[C@H](O)[C@@H]1O` (stereo partly specified), the IC50 was 100 µM.

Take `Cc1ccc(CNc2nc(N)c3ncn(C4O[C@H](CO)[C@@H](O)[C@H]4O)c3n2)cc1` (stereo partly specified): the concentration for half-maximal inhibition (IC50) stood at 1500 µM. As to `COc1cccc(CCNc2nc(N)nc3c2ncn3C2O[C@H](CO)[C@@H](O)[C@H]2O)c1` (stereo partly specified), the 50% inhibitory concentration (IC50) is 1900 µM. Consider `CC(CNc1nc(N)nc2c1ncn2C1O[C@H](CO)[C@@H](O)[C@H]1O)c1ccccc1` (stereo partly specified), for which the IC50 was 2900 µM. For `CCNc1nc(N)nc2c1ncn2C1O[C@H](CO)[C@@H](O)[C@H]1O` (stereo partly specified), the IC50 is 3500 µM. With `Nc1ccc(CCNc2nc(N)nc3c2ncn3C2O[C@H](CO)[C@@H](O)[C@H]2O)cc1` (stereo partly specified) the figure was 250 µM; with `C=CCNc1nc(N)nc2c1ncn2C1O[C@H](CO)[C@@H](O)[C@H]1O` (stereo partly specified), 3000 µM; with `Cc1cccc(CNc2nc(N)nc3c2ncn3C2O[C@H](CO)[C@@H](O)[C@H]2O)c1` (stereo partly specified), 400 µM. On to `Cc1ccccc1CNc1nc(N)c2ncn(C3O[C@H](CO)[C@@H](O)[C@H]3O)c2n1` (stereo partly specified), for which the half-maximal inhibitory concentration (IC50) worked out at 1500 µM.

`Nc1nc(NCc2ccccc2Cl)nc2c1ncn2C1O[C@H](CO)[C@@H](O)[C@H]1O` (stereo partly specified): the IC50 is 2000 µM.

`CC(Nc1nc(N)nc2c1ncn2C1O[C@H](CO)[C@@H](O)[C@H]1O)c1ccccc1` (stereo partly specified) gave an IC50 of 2900 µM.

Compound `Nc1nc(NCCc2ccccc2Cl)c2ncn(C3O[C@H](CO)[C@@H](O)[C@H]3O)c2n1` (stereo partly specified) gave an IC50 of 1900 µM. In the case of `Nc1nc(NCc2cccc(Cl)c2)nc2c1ncn2C1O[C@H](CO)[C@@H](O)[C@H]1O` (stereo partly specified), the IC50 worked out at 800 µM. The compound `Nc1nc(NCCc2ccc(O)c(O)c2)c2ncn(C3O[C@H](CO)[C@@H](O)[C@H]3O)c2n1` (stereo partly specified) returned an IC50 of 250 µM.

As to `Nc1nc(NCCc2ccc(O)cc2)nc2c1ncn2C1O[C@H](CO)[C@@H](O)[C@H]1O` (stereo partly specified), the half-maximal inhibitory concentration (IC50) worked out at 500 µM. For `Cc1cccc(CNc2nc(N)c3ncn(C4O[C@H](CO)[C@@H](O)[C@H]4O)c3n2)c1` (stereo partly specified), the IC50 was 1500 µM.

The compound `Nc1nc(NCCc2ccccc2)c2ncn(C3O[C@H](CO)[C@@H](O)[C@H]3O)c2n1` (stereo partly specified) yielded an IC50 of 200 µM. In the case of `Nc1nc(NCc2ccc(Cl)cc2)nc2c1ncn2C1O[C@H](CO)[C@@H](O)[C@H]1O` (stereo partly specified), the IC50 is 1400 µM. With `Nc1nc(NC2CCCCCC2)c2ncn(C3O[C@H](CO)[C@@H](O)[C@H]3O)c2n1` (stereo partly specified) the figure was 2500 µM; with `NCCCNc1nc(N)nc2c1ncn2C1O[C@H](CO)[C@@H](O)[C@H]1O` (stereo partly specified), 4000 µM. As for `Nc1nc(NCc2ccco2)c2ncn(C3O[C@H](CO)[C@@H](O)[C@H]3O)c2n1` (stereo partly specified), the IC50 is 1500 µM. In the case of `Nc1nc(NCc2cccc3ccccc23)c2ncn(C3O[C@H](CO)[C@@H](O)[C@H]3O)c2n1` (stereo partly specified) it was 1900 µM. In turn, `CCCCNc1nc(N)nc2c1ncn2C1O[C@H](CO)[C@@H](O)[C@H]1O` (stereo partly specified) gave a concentration for half-maximal inhibition (IC50) of 900 µM.

In the case of `Nc1nc(NCc2ccco2)nc2c1ncn2C1O[C@H](CO)[C@@H](O)[C@H]1O` (stereo partly specified), the half-inhibitory concentration (IC50) was 1200 µM. Consider `COc1ccccc1CCNc1nc(N)nc2c1ncn2C1O[C@H](CO)[C@@H](O)[C@H]1O` (stereo partly specified), for which the half-inhibitory concentration (IC50) amounted to 1800 µM.

`Nc1nc(NCc2ccccc2)c2ncn(C3O[C@H](CO)[C@@H](O)[C@H]3O)c2n1` (stereo partly specified) yielded a half-maximal inhibitory concentration (IC50) of 600 µM.

Consider `Nc1nc(NCCc2ccc(Cl)cc2Cl)nc2c1ncn2C1O[C@H](CO)[C@@H](O)[C@H]1O` (stereo partly specified), for which the IC50 was 600 µM. With `Nc1nc(NCCc2ccccc2Cl)nc2c1ncn2C1O[C@H](CO)[C@@H](O)[C@H]1O` (stereo partly specified) the figure was 2200 µM; with `Nc1nc(NCCCCCNc2nc(N)nc3c2ncn3C2O[C@H](CO)[C@@H](O)[C@H]2O)c2ncn(C3O[C@@H](CO)[C@H](O)[C@@H]3O)c2n1` (stereo partly specified), 1000 µM; with `CCCCNc1nc(N)c2ncn(C3O[C@H](CO)[C@@H](O)[C@H]3O)c2n1` (stereo partly specified), 1500 µM.

`Cc1ccc(CCNc2nc(N)nc3c2ncn3C2O[C@H](CO)[C@@H](O)[C@H]2O)cc1` (stereo partly specified) registered an IC50 of 2000 µM. For the compound `Nc1nc(NCC2CCCCC2)c2ncn(C3O[C@H](CO)[C@@H](O)[C@H]3O)c2n1` (stereo partly specified), the IC50 was 2500 µM.

As for `COc1ccc(CNc2nc(N)c3ncn(C4O[C@H](CO)[C@@H](O)[C@H]4O)c3n2)cc1` (stereo partly specified), the IC50 is 1000 µM. In turn, `Nc1nc(NC2CCCCCC2)nc2c1ncn2C1O[C@H](CO)[C@@H](O)[C@H]1O` (stereo partly specified) came in with an IC50 of 3000 µM.

`CC(CNc1nc(N)c2ncn(C3O[C@H](CO)[C@@H](O)[C@H]3O)c2n1)c1ccccc1` (stereo partly specified) displayed an IC50 of 3500 µM. `CCCNc1nc(N)nc2c1ncn2C1O[C@H](CO)[C@@H](O)[C@H]1O` (stereo partly specified) had an IC50 of 3000 µM. `Nc1nc(NCCCc2ccccc2)c2ncn(C3O[C@H](CO)[C@@H](O)[C@H]3O)c2n1` (stereo partly specified) yielded a half-maximal inhibitory concentration (IC50) of 4000 µM. With `Nc1nc(NCC2CCCO2)nc2c1ncn2C1O[C@H](CO)[C@@H](O)[C@H]1O` (stereo partly specified) the figure was 800 µM; with `Nc1ccc(CCNc2nc(N)c3ncn(C4O[C@H](CO)[C@@H](O)[C@H]4O)c3n2)cc1` (stereo partly specified), 500 µM; with `COc1ccc(CCNc2nc(N)nc3c2ncn3C2O[C@H](CO)[C@@H](O)[C@H]2O)cc1O` (stereo partly specified), 850 µM.

Turning to `COc1ccccc1CNc1nc(N)c2ncn(C3O[C@H](CO)[C@@H](O)[C@H]3O)c2n1` (stereo partly specified), the IC50 worked out at 1400 µM.

The compound `COc1cc(CCNc2nc(N)nc3c2ncn3C2O[C@H](CO)[C@@H](O)[C@H]2O)ccc1O` (stereo partly specified) came in with a half-maximal inhibitory concentration (IC50) of 1500 µM. In turn, `Nc1nc(NCCc2ccc(O)cc2)c2ncn(C3O[C@H](CO)[C@@H](O)[C@H]3O)c2n1` (stereo partly specified) yielded an IC50 of 130 µM. As to `Nc1nc(NCCCc2ccccc2)nc2c1ncn2C1O[C@H](CO)[C@@H](O)[C@H]1O` (stereo partly specified), the half-maximal inhibitory concentration (IC50) worked out at 1800 µM.
